Experimental data from PubChem BioAssay (NCI).
Structures can show the parent of a compound that is named as a salt.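 96-well plates; 48 h exposure; 5 concentrations. Endpoints by linear interpolation between flanking doses. Not reached: highest tested concentration assigned. TGI denotes the concentration required for complete inhibition of growth.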 *1 amine or outer side, *2 acyl side, *3 side chain or, on linkers, in order; H or OH if unused. Where a SMILES comes first, the peptide text is derived from it. [ ]: non-standard residue; d: D form. The star is where a group is joined. X31 = CC(=O)N(C)SCC(N[*:1])C(=O)[*:2]; X47 = CC(=O)N(C)SCC(N*)/C(O)=N\O; Cbz = O=C(OCc1ccccc1)*; Tfa = O=C(C(F)(F)F)*; Bn = c1ccc(C*)cc1; For = O=C*

Columns and labels:
Test in all cases: growth of human tumour cells (NCI), 48 h
HT29 colon = tested on: HT29 colon
SK-OV-3 ovarian = tested on: SK-OV-3 ovarian
NCI-H226 lung = tested on: NCI-H226 lung
MDA-MB-231 breast = tested on: MDA-MB-231 breast
MOLT-4 leukemia = tested on: MOLT-4 leukemia
NCI-H23 lung = tested on: NCI-H23 lung
DU-145 prostate = tested on: DU-145 prostate
M14 melanoma = tested on: M14 melanoma
HOP-92 NSCLC = tested on: HOP-92 NSCLC
IGROV1 ovarian = tested on: IGROV1 ovarian
U251 CNS = tested on: U251 CNS
SNB-75 CNS = tested on: SNB-75 CNS
SF-539 CNS = tested on: SF-539 CNS
SF-295 CNS = tested on: SF-295 CNS
OVCAR-4 ovarian = tested on: OVCAR-4 ovarian
UACC-62 melanoma = tested on: UACC-62 melanoma
OVCAR-3 ovarian = tested on: OVCAR-3 ovarian
NCI-H522 lung = tested on: NCI-H522 lung
CCRF-CEM leukemia = tested on: CCRF-CEM leukemia
A498 renal = tested on: A498 renal

SMILES | TGI (HT29 colon) | TGI (SK-OV-3 ovarian) | TGI (NCI-H226 lung) | TGI (MDA-MB-231 breast) | TGI (MOLT-4 leukemia) | TGI (NCI-H23 lung) | TGI (DU-145 prostate) | TGI (M14 melanoma) | TGI (HOP-92 NSCLC) | TGI (IGROV1 ovarian) | TGI (U251 CNS) | TGI (SNB-75 CNS) | TGI (SF-539 CNS) | TGI (SF-295 CNS) | TGI (OVCAR-4 ovarian) | TGI (UACC-62 melanoma) | TGI (OVCAR-3 ovarian) | TGI (NCI-H522 lung) | TGI (CCRF-CEM leukemia) | TGI (A498 renal)
Oc1ccc(-c2csc(NNC3=NC/C(=C/c4ccc5c(c4)OCO5)S3)n2)cc1O | > 100 µM | > 100 µM | > 100 µM | > 100 µM | > 100 µM | 47.7 µM | > 100 µM | > 100 µM | > 100 µM | 65.3 µM | > 100 µM | 38.9 µM | > 100 µM | > 100 µM | > 100 µM |  |  |  |  | 
Nc1sc2c(c1C(=O)c1ccc(Cl)c(Cl)c1)CCCC2 | > 100 µM | > 100 µM | > 100 µM | > 100 µM | > 100 µM | > 100 µM | > 100 µM | > 100 µM | > 100 µM |  | > 100 µM | 86.4 µM | > 100 µM | > 100 µM | > 100 µM | > 100 µM | > 100 µM | 50.2 µM | > 100 µM | 
COc1cc(C=O)ccc1Oc1nnnn1-c1ccccc1 | > 100 µM | > 100 µM | 56.7 µM | > 100 µM | 75.1 µM | > 100 µM | > 100 µM | > 100 µM | > 100 µM | > 100 µM | > 100 µM | > 100 µM |  | > 100 µM | > 100 µM |  | > 100 µM | > 100 µM | 52.4 µM | 
NC(Cc1ccc(S(=O)(=O)O)cc1)C(=O)NC(CCCCNC(=O)NCCCCC(NC(=O)C(N)Cc1ccc(S(=O)(=O)O)cc1)C(=O)NC(Cc1ccc(S(=O)(=O)O)cc1)C(=O)O)C(=O)NC(Cc1ccc(S(=O)(=O)O)cc1)C(=O)O (centres undefined) | > 100 µM | > 100 µM | > 100 µM | > 100 µM | > 100 µM | > 100 µM | > 100 µM | > 100 µM |  | > 100 µM | > 100 µM | > 100 µM | > 100 µM | > 100 µM | > 100 µM | > 100 µM | > 100 µM | > 100 µM | > 100 µM | > 100 µM
Cc1c(NC(=S)NN)c(=O)n(-c2ccccc2)n1C | > 100 µM | > 100 µM | > 100 µM | > 100 µM | > 100 µM |  | > 100 µM | > 100 µM |  | > 100 µM | > 100 µM | > 100 µM | > 100 µM | > 100 µM | > 100 µM | > 100 µM | > 100 µM | > 100 µM | > 100 µM | > 100 µM
OCC1OC(n2nc(-c3ccccc3)nc2-c2cnccn2)C(O)C(O)C1O (centres undefined) | > 100 µM | > 100 µM |  | > 100 µM | > 100 µM | > 100 µM | > 100 µM | > 100 µM | > 100 µM | > 100 µM | > 100 µM | > 100 µM | > 100 µM | > 100 µM | > 100 µM | > 100 µM | > 100 µM | > 100 µM | > 100 µM | 
O=C(O)CC(NC(=O)C(F)(F)F)C(=O)NC(Cc1ccc(O)cc1)C(=O)O (stereo not drawn) (Tfa-Asp-Tyr-OH; configuration not given here) | > 50 µM | > 50 µM | > 50 µM | > 50 µM | > 50 µM | > 50 µM | > 50 µM | > 50 µM | > 50 µM | > 50 µM | > 50 µM | > 50 µM | > 50 µM | > 50 µM |  | > 50 µM | > 50 µM | > 50 µM |  | 
CC(=O)N(C)SCC(NC(=O)C(Cc1ccccc1)NC(=O)OCc1ccccc1)C(=O)NC(Cc1ccccc1)C(=O)NC(Cc1cn(C=O)c2ccccc12)C(=O)NC(CCCCNC(=O)OCc1ccccc1)C(=O)NC(C(=O)NC(CSN(C)C(C)=O)/C(O)=N\O)C(C)OCc1ccccc1 (centres undefined) (Cbz-F[X31]FW(For)K(Cbz)T(Bn)-X47; configuration not given here) | > 100 µM | > 100 µM | > 100 µM | > 100 µM | > 100 µM | > 100 µM | > 100 µM | > 100 µM | > 100 µM | > 100 µM | > 100 µM | > 100 µM | > 100 µM | > 100 µM | > 100 µM | > 100 µM | > 100 µM | > 100 µM | > 100 µM | 
NC(=O)c1nnc2ccc(F)cc2c1N | > 100 µM | > 100 µM | 73.5 µM | > 100 µM | > 100 µM | > 100 µM | > 100 µM | > 100 µM |  | > 100 µM | > 100 µM | > 100 µM | > 100 µM | > 100 µM | > 100 µM | > 100 µM | > 100 µM | > 100 µM | > 100 µM | > 100 µM
Cc1cc(N(CCC#N)CCC#N)ccc1/C(N=Nc1ccc(Cl)cc1)=N\NC(=O)c1cc(Cl)ccc1O | > 100 µM | 97.9 µM | 85.1 µM | > 100 µM | > 100 µM | > 100 µM | > 100 µM | > 100 µM |  | > 100 µM | > 100 µM | 84.4 µM | 73.6 µM | 91.4 µM | > 100 µM | > 100 µM | 66.2 µM | 37 µM | > 100 µM | > 100 µM
